Experimental data from PMC8387461, “T cell receptor recognition of hybrid insulin peptides bound to HLA-DQ8” (Nature Communications, 2021).

Tests used:
[1] = system: CD4+ T cell clone A5.5; assay: T cell stimulation assay, IFNγ ELISA, clone A5.5; format: cell-based, human; conditions: primary clone A5.5, APC EBV-KJ, 24 h
Description: Fig. 2 Comparison of the stimulatory capacity of full-length proinsulin C-peptide and HIP on T1D CD4 + T cell clones. […] Titration of full-length 31-mer C-peptide ([…], (open circles) and 15mer C-peptide-IAPP2 HIP ([…] (filled circles). Antigen presenting cells (APC) were the EBV line, EBV-KJ, (2 × 10^4 cells/well). APC were cultured for 24 h with the same number (2 × 10^4 cells/well) of the primary CD4 + T-cell clone and the peptide concentration indicated. T-cell response to peptide were indicated by secretion of IFNγ which was measured in triplicate by ELISA and reported as pg/ml. Mean and standard deviations of triplicate IFNγ measurements are shown. Results are representative of two experiments for each clone.
For primary T1D CD4+ T cell clones, cells were thawed and used directly in functional assays. For T cell stimulation assays, cloned CD4+ T cells were incubated with BLCL KJ (; HLA-DQ8 + : HLA-DQA1*03:01, HLA-DQB1*03:02), as APCs, together with synthetic peptides. For the alanine scan experiments, each peptide was added to a final concentration of 10 μM. T cell response to antigen was measured as interferon gamma (IFNγ) secretion into the culture media. The IFNγ concentration in the culture media was determined by ELISA (Biolegend).
Supplementary Figure 8. […]
type) at each position P-3 to P12 are shown. IFNγ was measured in triplicate by ELISA, concentrations are shown in pg/ml. […]

[2] = system: SKW-3 A1.9 TCR cells; assay: CD69 upregulation, SKW-3 A1.9 TCR cells; format: cell-based, human; conditions: CD69 MFI, flow cytometry; peptide-pulsed BLCL 9031, 20 h
Description: For TCR transduced SKW-3 T cell lines (SKW-3-TCR), response to antigen was determined using flow cytometry to assess the level of upregulation of the T cell activation marker CD69. One hundred thousand BLCL 9031 cells (HLA-DQ8 + : HLA-DQA*03:01:01, HLA-DQB1*03:02) as APCs were incubated at 37 °C, 5% CO2 for 24 h with increasing concentrations of synthesised HIP ([…]; GLBiochem) or native C-peptide ([…]; GLBiochem) or 50 μg DQ8-glia-α1 (control) in 96 well round-bottomed plates. […] Before data acquisition, the samples were resuspended in 100 μl of FACS buffer and analysed via flow cytometry (LSR II; BD Biosciences; BD FACSDiva-8.0.1 software). Collected data were analysed using Flowjo v10.6.0 (FlowJo), and then Prism 9 (GraphPad Software). […] Using these settings, the median fluorescence intensity (MFI) corresponding to the relative level of CD69 expressed on the SKW-3-TCR.TCR cell lines was determined using Flowjo v10.6.0 software. The MFI of CD69 were analysed by using Prism 9 (GraphPad Software). […] Statistical significance was determined using P-values generated by t-test or one-way ANOVA multiple comparison of the MFI of no-peptide-stimulated SKW-3-TCR T cells versa the MFI of peptide-stimulated SKW-3-TCR T cells. […]
expression. The fold increase in MFI CD69 expression was calculated by dividing the average MFI CD69 from each sample by the average MFI CD69 from BLCL 9031 (no […]

GQVELGGGNAVEVLK [HIP]
sensitivity to HIP versus native proinsulin C-peptide [1]: ten times more sensitive to the HIP peptide than native proinsulin C-peptide | preference for HIP over C-peptide [2]: 25 fold
